Converted amounts (≈) assume the structure as drawn. The source made the active and inactive calls. No cut-off for these calls is given here.

In data set [1] the test system is Pseudomonas aeruginosa. Description: Antibacterial activity against Pseudomonas aeruginosa assessed as inhibition of bacterial growth incubated for 24 hrs by CLSI broth microdilution method. Format: functional. To be noted: for MIC: Pseudomonas aeruginosa.
The nature of data set [2]: Inhibition of quorum sensing system in Pseudomonas aeruginosa assessed as inhibition of biofilm production at sub-MIC incubated for 24 hrs by crystal violet staining based analysis.
A short description of data set [3]: Inhibition of quorum sensing system in Pseudomonas aeruginosa assessed as inhibition of pyocyanin production at sub-MIC by absorbance based analysis.
Data set [4] is described as follows: Inhibition of quorum sensing system in Pseudomonas aeruginosa assessed as inhibition of rhamnolipid production at sub-MIC by spectrophotometric method.
The nature of data set [5]: Inhibition of quorum sensing system in Pseudomonas aeruginosa assessed as downregulation of lasR gene expression at sub-MIC by fluorescence real time PCR analysis. (In qPCR the cycle at which signal appears reflects the starting amount.)
Data set [6] is described as follows: Inhibition of quorum sensing system in Pseudomonas aeruginosa assessed as downregulation of rhlR gene expression at sub-MIC by fluorescence real time PCR analysis.
Data set [7] deals with Pseudomonas aeruginosa. Description: Antibacterial activity against Pseudomonas aeruginosa ATCC 27853 assessed as zone of growth inhibition incubated for 24 hrs by agar diffusion method. Format: functional. A general note: In agar diffusion tests the substance spreads into inoculated agar from a disc or well.
Data set [8] deals with Staphylococcus aureus. Description: Antibacterial activity against Staphylococcus aureus ATCC 43300 assessed as inhibition of bacterial growth incubated for 24 hrs by agar diffusion method. The format is functional, organism-based.
Data set [9] deals with Bacillus subtilis. As to the kind of experiment: Antibacterial activity against Bacillus subtilis ATCC 6633 assessed as inhibition of bacterial growth incubated for 24 hrs by agar diffusion method. The format is functional, organism-based.
A short description of data set [10]: Cytotoxicity against human HDFa cells assessed as reduction in cell viability incubated for 24 hrs by MTT assay. The format is toxicity, cell-based. On the technique in general: Tetrazolium assays rely on reduction of a dye to a coloured formazan, in cell work by metabolically active cells.
Data set [11] can be described thus: Selectivity index, ratio of IC50 for human HDFa cells to MIC for antibacterial activity against Pseudomonas aeruginosa. The note with it: read-out: Selectivity Index. Format: toxicity.
The test system of data set [12] is Escherichia coli. Description: Antibacterial activity against Escherichia coli ATCC 25922 assessed as inhibition of bacterial growth incubated for 24 hrs by agar diffusion method. The format is functional, organism-based.
The test system of data set [13] is Klebsiella pneumoniae. Description: Antibacterial activity against Klebsiella pneumoniae ATCC 700603 assessed as inhibition of bacterial growth incubated for 24 hrs by agar diffusion method. Format: functional, organism-based.
For data set [14], the system named is Candida albicans. As to the kind of experiment: Antifungal activity against Candida albicans ATCC 60193 assessed as inhibition of fungal growth incubated for 48 hrs by agar diffusion method. Format: functional, organism-based.
Data set [15] has as its target T1, Transcriptional activator protein LasR (Pseudomonas aeruginosa (strain ATCC 15692 / PAO1 / 1C / PRS 101 / LMG12228), UniProt P25084).
T1 sequence (P25084 whole entry): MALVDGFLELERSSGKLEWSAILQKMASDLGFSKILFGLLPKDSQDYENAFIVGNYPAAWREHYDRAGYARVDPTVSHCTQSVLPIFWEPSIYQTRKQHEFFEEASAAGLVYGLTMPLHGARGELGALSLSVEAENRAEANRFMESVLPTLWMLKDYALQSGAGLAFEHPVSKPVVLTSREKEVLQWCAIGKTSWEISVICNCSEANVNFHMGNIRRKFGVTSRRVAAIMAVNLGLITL
As to the kind of experiment: Inhibition of Pseudomonas aeruginosa PAO1 LasR co-transfected with LVAgfp reporter assessed as inhibition of GFP production measured after 12 to 24 hrs by fluorescence based analysis.

In data set [16] the target is T2, HTH-type quorum-sensing regulator RhlR (Pseudomonas aeruginosa (strain ATCC 15692 / PAO1 / 1C / PRS 101 / LMG12228), UniProt P54292).
T2 sequence (P54292 whole entry): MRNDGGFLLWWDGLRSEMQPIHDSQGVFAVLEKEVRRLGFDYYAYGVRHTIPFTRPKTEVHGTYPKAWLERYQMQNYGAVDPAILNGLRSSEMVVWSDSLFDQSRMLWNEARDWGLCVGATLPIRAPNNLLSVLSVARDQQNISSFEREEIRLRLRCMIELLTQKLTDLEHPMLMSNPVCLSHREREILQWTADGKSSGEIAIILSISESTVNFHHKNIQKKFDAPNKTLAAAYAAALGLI
As to the kind of experiment: Inhibition of Pseudomonas aeruginosa PAO1 RhlR co-transfected with LVAgfp reporter assessed as inhibition of GFP production measured after 12 to 24 hrs by fluorescence based analysis.

The target of data set [17] is T1, Transcriptional activator protein LasR. Description: Inhibition of Pseudomonas aeruginosa PAO-JP2 LasR co-transfected with LVAgfp reporter assessed as inhibition of GFP production by fluorescence based analysis.
The target is the same in data set [18]. As to the kind of experiment: Inhibition of Pseudomonas aeruginosa PAO-JG21 LasR co-transfected with LVAgfp reporter assessed as inhibition of GFP production by fluorescence based analysis.
Data set [19] shares this target. As to the kind of experiment: Inhibition of Pseudomonas aeruginosa PAO1 LasR.
The target in data set [20] is T2, HTH-type quorum-sensing regulator RhlR. As to the kind of experiment: Inhibition of Pseudomonas aeruginosa PAO1 RhlR.
For data set [21], the target named is T3, Transcriptional activator protein LasR (Pseudomonas aeruginosa (strain ATCC 15692 / PAO1 / 1C / PRS 101 / LMG12228)) (UniProt P25084).
T3 sequence (whole entry): T1 sequence (P25084 whole entry)
Description: Inhibition of Pseudomonas aeruginosa MH602 LasR co-transfected with ASVgfp reporter assessed as inhibition of GFP production at 250 uM by fluorescence based analysis.

Data set [22] has as its target T3, Transcriptional activator protein LasR (Pseudomonas aeruginosa (strain ATCC 15692 / PAO1 / 1C / PRS 101 / LMG12228)). As to the kind of experiment: Inhibition of Pseudomonas aeruginosa MH602 LasR co-transfected with ASVgfp reporter assessed as inhibition of GFP production at 125 uM by fluorescence based analysis.
Data set [23] shares this target. As to the kind of experiment: Inhibition of Pseudomonas aeruginosa MH602 LasR co-transfected with ASVgfp reporter assessed as inhibition of GFP production at 62.5 uM by fluorescence based analysis.

The term MIC denotes the lowest concentration found to suppress growth. The inhibition is how much of the control response was suppressed. Consider `CC[C@H]1OC(=O)[C@H](C)[C@@H](O[C@H]2C[C@@](C)(OC)[C@@H](O)[C@H](C)O2)[C@H](C)[C@@H](O[C@@H]2O[C@H](C)C[C@H](N(C)C)[C@H]2O)[C@](C)(O)C[C@@H](C)CN(C)[C@H](C)[C@@H](O)[C@]1(C)O` [AZITHROMYCIN], for which the SubMIC in [1] came to 20.1 µM. Also, the minimal inhibitory concentration (MIC) in data set [1] was 85.4 µM (≈ 64 µg/mL). Also, the inhibition in data set [2] amounted to 52.5%; in [3], 65%; in [4], 55.2%; in [5], 40.8%; in data set [6], 41.5%.
Turning to `COc1ccc(NC(=O)COc2ccc(-c3nc4ccccc4[nH]3)cc2)cc1`, the “inhibition zone (IZ)” value in [7] was 18 mm. The result in data set [8] was Active. The SubMIC in data set [1] was found to be 37.4 µM. Moreover, the minimum inhibitory concentration (MIC) in data set [1] was 151 µM (≈ 56.2 µg/mL). In addition, the results for the inhibition in [2], in data set [3] and in [4] were 67.1%, 61.8% and 46.4%, respectively.
By IC50 is commonly meant the concentration that inhibits the measured activity by half. Turning to `Cc1ccccc1NC(=O)COc1ccc(-c2nc3ccccc3[nH]2)cc1`, the “inhibition zone (IZ)” value in data set [7] worked out at 16 mm. Besides, the result in data set [9] was Active. Further, in [1], the SubMIC came out at 39.1 µM. Moreover, in data set [1], the MIC is 157 µM (≈ 56.2 µg/mL). The inhibition in data set [2] was found to be 68.9%; in [3], 68%; in [4] it was 51.8%; in [5], 26%; in data set [6], 16.3%. For the same compound, in data set [10], the IC50 at 24 h stood at 338 mg/L (≈ 946 µM). Further, the selectivity ratio in [11] worked out at 6.01.
Consider `CN1CCN(c2ccc(-c3nc4ccccc4[nH]3)cc2)CC1`, for which the result in [12], in [13], in data set [8] and in data set [14] was Active. The “inhibition zone (IZ)” value in [7] was determined as 20 mm. For the same compound, the SubMIC in data set [1] is 48 µM. Besides, in [1], the MIC is 193 µM (≈ 56.4 µg/mL). Further, the inhibition in [2] was determined as 71.7%; in data set [3], 68.7%; in data set [4], 54%; in data set [5] it was 61.7%. The IC50 at 24 h in data set [10] is 217 mg/L (≈ 742 µM). Also, the selectivity ratio in [11] turned out to be 3.86.
For the compound `Cc1ccc2[nH]c(-c3ccc(OCC(=O)Nc4ccccc4[N+](=O)[O-])cc3)nc2c1`, the “inhibition zone (IZ)” value in [7] worked out at 14 mm. Moreover, in [9], the outcome was Active. The SubMIC in data set [1] was 17.4 µM. Besides, in data set [1], the MIC was found to be 69.9 µM (≈ 28.1 µg/mL). In addition, the results for the inhibition in [2], in data set [3] and in data set [4] were 64.9%, 60% and 42.3%, respectively. Moreover, the IC50 at 24 h in data set [10] was 411 mg/L (≈ 1020 µM). In data set [11], the selectivity ratio turned out to be 14.6.
Turning to `Cc1cc2nc(N)[nH]c2cc1C`, the 50% inhibitory concentration (IC50) in data set [15] was 37.5 µM; in data set [16] it was 12.5 µM.
As for `Nc1nc2ccccc2[nH]1`, the IC50 stood at 2.3 µM in data set [17], 1.4 µM in data set [18], 399 µM in [19] and 285 µM in data set [20].
With `c1ccc2[nH]c(-c3ccc(N4CCCCC4)cc3)nc2c1`, the “inhibition zone (IZ)” value in [7] was found to be 19 mm. Moreover, the outcome in data set [8] was Active. Moreover, the SubMIC in [1] came out at 50.4 µM. The minimum inhibitory concentration (MIC) in [1] is 203 µM (≈ 56.3 µg/mL). In addition, the inhibition in [2] is 67.3%; in [3], 63.6%; in data set [4], 49.6%.
As for `O=C(Cn1cc(-c2ccc([N+](=O)[O-])cc2)nn1)Nc1nc2ccccc2[nH]1`, the figures for the inhibition in data set [21], in data set [22] and in data set [23] were 68.2%, 67.1% and 63.7%, respectively.

Values taken from ChEMBL document CHEMBL5108020, “Design and synthesis of novel benzimidazole derivatives as potential Pseudomonas aeruginosa anti-biofilm agents inhibiting LasR: Evidence from comprehensive molecular dynamics simulation and in vitro investigation” (Eur J Med Chem, 2022).
